Measured values published in patent US8420605B2, “Hydrogel compositions” (The University of Strathclyde, priority 2005, dated 2013).
Peptide text beside a SMILES is read from it. * marks the point of attachment. Fmoc = O=C(OCC1c2ccccc2-c2ccccc21)*

Experiments:
[1] = Preparation of self-assembled peptide hydrogels by pH adjustment (gel formation); format: physicochemical
Procedure: Fmoc peptides (from BACHEM Ltd) were weighed out into 4 ml glass vials. 2 ml purified water was added followed by sonication for 30-60 seconds. 0.5M NaOH solution was added in 50 μl droplets until a clear solution was formed. 0.1M HCl was added to the solution by stepwise addition of 50 μl followed by mixing using a vortex. pH values were estimated by transferring a spatula tip of hydrogel onto universal indicator paper.
Self-assembled scaffolds were prepared by first suspending the Fmoc-dipeptide in purified water. Upon increase of the pH by addition of concentrated NaOH (thus de-protonating the carboxylic acid group) to a value of >8, a clear solution was obtained. To this solution, concentrated hydrochloric acid was added drop wise until the pH of the solution became 7, at which point a clear, self-supporting gel was formed.
Table 3 below identifies various peptide derivatives (incorporating an aromatic stacking ligand) and mixtures thereof that formed gels at a pH of 6-8 at the indicated concentrations: […]

[2] = tested on: human adult dermal fibroblast; experiment: 3D culture inside peptide gels, cell shape; format: cell-based; settings: 10 mM/L gel, cells seeded inside the gel
Procedure: With 10 mM/L Fmoc-Phe-Phe-OH self-assembled hydrogels, human adult dermal fibroblast were also seeded 3 dimensionally (3D culture) inside the peptide gels. […] Despite proliferation, whether ECM components (proteins and saccharides) were synthesized and secreted by these cells is another way to justify cells' reaction to the material. However, viability of the cells is of necessity to maintain a steady ECM secretion or to restore proliferation after possible cell spreading at later time points.

Human dermal fibroblasts = format: cell-based
Description: In order to coarsely test cell viability, a Live/Dead assay was chosen in which two reagents of EthD-1 and Calcine AM were involved. […] With the help of this staining and fluorescence microscope, living and dead cells could be easily visualized therefore viability inside the culture is measured.
For making Fmoc-Phe-Phe-OH peptide solution, 0.0107 gram of Fmoc-Phe-Phe-OH was weighed in a glass vial and sterilized for 30 minutes by an ultraviolet light with bottles of distilled water, filtered NaOH (Sodium Hydroxide, 0.5 M/L), filtered HCl (Hydrochloric Acid, 0.5 M/L), and relevant apparatus (spatulas, pipettes, Vortex). 2 mL of the sterile distilled water was then added into the glass vial of Fmoc-Phe-Phe-OH, and the mixture was vortexed for a few seconds to create a suspension. Afterwards, approximate 100 μL of NaOH was gradually pipetted into the suspension (20 μL each pipetting) and the mixture was vortexed after every addition of the alkaline. […] The basic peptide solution (pH around 10) was finally neutralized to pH 7 by dropwise addition of HCl and pH values were monitored by a pH meter with a micro-probe. […]

[3] = tested on: Human mesenchymal stem cells (MSCs); experiment: PCR gene expression of cells cultured in gels for 14 days; format: cell-based; settings: after 14 days
Procedure: Human mesenchymal stem cells (MSCs) were isolated from bone marrow taken from patients (with both patient and ethical consent) undergoing hip replacement surgery.A HISTOPAQUE (SIGMA-ALDRICH) gradient was used to isolate mononuclear cells and these cells were cultured in monolayer with α-MEM (with 10% heat-inactivated foetal calf serum, 100 U/ml streptomycin/penicillin and 0.85 mM ascorbic acid) under standard culture conditions (humidified atmostphere, 37° C., 5% CO2). After 5 days non-adherent cells were removed by washing with media.
At 80% confluence in passage 3 the MSCs were trypsinised and a cell count was performed. A suitable number of cells were centrifuged at 400 g for 5 minutes and then resuspended in a 10 mM Fmoc-Phe-Phe solution to a final concentration of 4×10^6 cells/ml. The cell suspension was mixed to ensure even cell distribution and 200 μl layers were pipetted into high pore density (0.4 μm pore size) cell culture inserts in 24-well plates. Media (α-MEM as previously described) was added gently to both the well and the insert and gels were allowed to polymerise.
The cell-seeded gels were then cultured under standard conditions for 14 days with media changed every 2 days. Following culture 1 ml of TRIZOL was added to each insert and the gels disrupted by pipetting. A modified RNA extraction procedure was performed combining both the TRIZOL and PURELINK (INVITROGEN) extraction procedures. RNA was reverse transcribed to cDNA using SUPERSCRIPT II (INVITROGEN) and PCR performed using a standard HOTSTARTAQ (QIAGEN) procedure for the house-keeping gene GAPDH as well as the transcription factor SOX-9, aggrecan and collagen types I and II.
PCR products were run on a 1.5% agarose gel containing ethidium bromide and visualised on a UV-transilluminator.

Q: With `O=C(N[C@@H](Cc1ccccc1)C(=O)N[C@@H](Cc1ccccc1)C(=O)O)OCC1c2ccccc2-c2ccccc21` [Entry 1, Fmoc-Phe-Phe-OH] (Fmoc-Phe-Phe-OH) as the compound, how does the “Gel?” value ([1]; Component 1 10 mM/L, pH 7) read?
A: ✓

Q: What about the “Concentration” value ([1]; Properties of self-assembled Fmoc-dipeptides (Table 1), concentration range of gel) of the same compound?
A: 2900 to 30000 µM

Q: And the pH ([1]; Properties of self-assembled Fmoc-dipeptides (Table 1), pH range of gel)?
A: 4-8

Q: What about the pH ([1]; pH at which the gel formed at the indicated concentrations (Table 3)) of the same compound?
A: 7

Q: And the “cell shape in 3D culture” value [2]?
A: oval to round cell shape remained for a long term

Q: What about the “cell viability (live/dead staining)” value (Human dermal fibroblasts) of the same compound?
A: majority of cells were shown to be living

Q: And the “cell spreading in the gel” value (Human dermal fibroblasts; during the first 3 days, 3D culture)?
A: did not complete spreading

Q: And the “cell viability (from gene expression)” value [3]?
A: viable cells present

Q: And the “expression of GAPDH” value ([3]; 10 mM gel)?
A: expression

Q: And the “expression of SOX-9” value ([3]; 10 mM gel)?
A: lack of expression

Q: And the expression of aggrecan ([3]; 10 mM gel)?
A: lack of expression

Q: And the “expression of type I collagen” value ([3]; 10 mM gel)?
A: expression

Q: What about the “expression of type II collagen” value ([3]; 10 mM gel) of the same compound?
A: lack of expression
